# Source: PubChem BioAssay (NCI)
# Where “and” joins values, the source holds several entries; their conditions need not be identical. Identical values can stand only once.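 Cells were grown in 96-well plates and exposed to each compound for 48 hours at five concentrations; endpoints were interpolated linearly between bracketing concentrations, or set to the highest concentration if not reached. GI50 marks 50% less growth. TGI: total growth inhibition.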
# Columns and labels:
# Test in all cases: growth of human tumour cells (NCI), 48 h
# [1] = system: MDA-MB-231 breast
# [2] = system: SNB-19 CNS
# [3] = system: UACC-62 melanoma
# [4] = system: CAKI-1 renal
# [5] = system: NCI-H226 lung
# [6] = system: UO-31 renal
# [7] = system: HCT-15 colon
# [8] = system: SK-MEL-28 melanoma
# [9] = system: ACHN renal
# [10] = system: SK-MEL-2 melanoma
SMILES,GI50 [1] [µM],TGI [1] [µM],GI50 [2] [µM],TGI [2],GI50 [3] [µM],TGI [3],GI50 [4] [µM],TGI [4],GI50 [5] [µM],TGI [5],GI50 [6] [µM],TGI [6],GI50 [7] [µM],TGI [7],GI50 [8] [µM],TGI [8],GI50 [9] [µM],TGI [9],GI50 [10] [µM],TGI [10]
CCC1CCc2nc3sc(C(=O)Nc4ccccc4F)c(N)c3cc2C1 (centres undefined),> 100,> 100,53.8,> 100 µM,0.523,> 100 µM,0.768,> 100 µM,> 100,> 100 µM,> 100,> 100 µM,0.401,> 100 µM,11.3,> 100 µM,> 100,> 100 µM,10.5,> 100 µM
NC1=NC(=O)N2CC12 (centres undefined),107,244,516,> 100 µM and 1120 µM,130,> 100 µM and 408 µM,35.1,> 100 µM and 118 µM,184,> 100 µM and 896 µM,163,> 100 µM and 605 µM,301,> 100 µM and 1140 µM,–,> 100 µM and 196 µM,347,> 100 µM and 1020 µM,63.3,> 100 µM and 329 µM
O=c1oc2ccc(Cl)cc2c(=O)n1-c1ccc(Cl)cc1F,0.397,4.59,0.391,> 100 µM,0.247,0.964 µM,0.271,1.67 µM,0.576,3.3 µM,0.188,1.62 µM,0.791,6.69 µM,0.379,2.29 µM,0.512,8.32 µM,0.37,2.26 µM
CCOC(=O)[C@H](CSSc1ncnc2cc[nH]c12)NC(=O)[C@@H](C)c1ccc2cc(OC)ccc2c1,1.08,> 100,44.4,> 100 µM,0.425,> 100 µM,0.378,> 100 µM,0.614,> 100 µM,0.736,> 100 µM,1.73,> 100 µM,13.8,> 100 µM,2.1,> 100 µM,0.791,> 29 µM
COc1cc2c(c(OC)c1OC)-c1ccc([O-])c(=O)cc1[C@@H](NC(C)=O)CC2.COc1cc2c(c(OC)c1OC)-c1ccc([O-])c(=O)cc1[C@@H](NC(C)=O)CC2.[Cu+2],3.84,> 100,14.7,> 100 µM,1.86,11.4 µM,4.96,63.1 µM,5.13,> 100 µM,4.1,41.9 µM,3.73,> 100 µM,7.82,> 100 µM,7.83,> 100 µM,3.59,> 100 µM
Oc1c(Br)cc(Br)cc1CN(Cc1cc(Br)cc(Br)c1O)C1CCCCC1,–,72.4,–,> 100 µM,–,> 100 µM,–,> 100 µM,–,> 100 µM,–,> 100 µM,–,> 100 µM,–,> 100 µM,–,> 100 µM,–,45.4 µM
Cc1cc(NC(=O)c2ccc(NS(=O)(=O)CCO)cc2N2CCC3(CC2)CC3)nc(N2CCC(F)(F)CC2)n1,0.188,17.6,2.03,21.6 µM,12.3,24.9 µM,10.9,23.2 µM,2.09,29.3 µM,11.4,23.8 µM,4.71,20.5 µM,16.8,30.7 µM,13.5,26.4 µM,15.8,31.1 µM
N=c1ccn2c(n1)OC1C(OP(=O)(O)O)C(CO)OC12 (centres undefined),–,> 100,–,> 100 µM,–,> 100 µM,–,> 100 µM,–,> 100 µM,–,> 100 µM,–,> 100 µM,–,> 100 µM,–,14 µM,–,> 100 µM
COc1cc(N2CCC(N3CCN(C)CC3)CC2)ccc1Nc1ncc(Cl)c(Nc2ccccc2P(C)(C)=O)n1,0.625,31.7,3.09,> 100 µM,2.94,> 72.2 µM,1.99,9.58 µM,0.417,5.21 µM,0.734,2.7 µM,2.97,> 40.4 µM,18.5,> 100 µM,1.12,9.65 µM,2.67,30.6 µM
COc1ccc(-c2cc(-c3ccc(Nc4nc(Nc5ccc(Cl)cc5)nc(Nc5ccc(Cl)cc5)n4)cc3)no2)cc1,16.4,> 100,27.4,> 100 µM,23.1,57.6 µM,15.5,62.3 µM,19.8,49.2 µM,5.36,35.2 µM,12.4,> 100 µM,11.7,41.4 µM,27.6,> 100 µM,17.1,57.5 µM
O=C1C=C(Nc2ccccc2)c2ncccc2C1=O,0.485,3.4,0.411,1.43 µM,0.224,0.521 µM,1.39,2.7 µM,1.71,3.61 µM,0.333,1.32 µM,0.321,1.28 µM,1.7,3.24 µM,0.349,1.22 µM,1.91,3.67 µM
CCN(Cc1ccc(F)cc1)c1ccc(CO)c(Cl)c1,15.6,51.5,19.6,> 59.8 µM,0.0693,0.522 µM,0.487,8.79 µM,0.0306,0.116 µM,3.02,31.5 µM,5.15,50.7 µM,14.5,39.3 µM,10.2,> 48.6 µM,2.03,13.9 µM
O=C(OC(C(=O)O)C(OC(=O)c1ccccc1)C(=O)O)c1ccccc1 (centres undefined) (tested in a mixture with another compound),–,95.2,–,> 100 µM,–,> 100 µM,–,> 100 µM and 52.2 µM,–,> 100 µM,–,> 100 µM,–,> 100 µM,–,> 100 µM,–,> 100 µM,–,> 100 µM and 28.7 µM
CCCCCCN(CCCCCC)C(=N)c1ccnc2ccccc12,5.13,21.3,11,25.7 µM,4.88,19.6 µM,3.18,15 µM,11.8,26.7 µM,0.708,13 µM,3.82,16.6 µM,3.13,8.6 µM,4.23,16.3 µM,3.66,12.2 µM
Nc1ncc(-c2cnn(C3CCNCC3)c2)cc1-c1nc2ccccc2o1,2.32,6.56,3.25,10.6 µM,1.6,3.07 µM,0.532,2.85 µM,1.97,6.59 µM,0.714,2.35 µM,0.508,2.5 µM,1.74,3.17 µM,0.86,2.71 µM,1.1,2.72 µM
